# What was measured:
# B16-F10 [1] = experiment: Photorelease activity in mouse B16-F10 cells assessed as uncaging of active molecules of drug by measuring green fluorescence at 20 uM incubated for 4 hrs irradiated with >= 365 nm Hg lamp for 5 mins and further incubated for 4 hrs by propidium iodide staining based confocal laser scanning microscopy; format: functional, cell-based; details: time 8.0 hrs
# [2] = Photorelease ability in CDCl3 assessed as compound decomposition by measuring (2,2'-(9-ethy1-9H-carbazole-3,6-chyl)bis(2-oxoacetaldehyde) photoproduct formation at 100 uM measured after 20 mins of irradiation with >= 365 nm Hg lamp by 1H-NMR spectroscopy; format: physicochemical
# [3] = Stability of compound in PBS buffer at pH 7.4 at 100 uM incubated for 72 hrs under dark condition in presence of cysteine by Reverse-phase HPLC analysis; format: physicochemical; details: read-out: Stability
# [4] = Stability of compound in PBS buffer at pH 7.4 at 100 uM incubated for 72 hrs under dark condition by RP-HPLC analysis; format: physicochemical; details: read-out: Stability
# B16-F10 [5] = experiment: Cytotoxicity against mouse B16-F10 cells assessed as cell viability at 1.25 to 10 uM irradiated with >= 365 nm Hg lamp for 5 mins after 6 hrs post-treatment and further incubated for 72 hrs by MTT assay; format: functional; details: dose 1.25-10 µM, time 78 hrs
# [6] = Drug uptake in mouse B16-F10 cells assessed as drug internalization by measuring blue fluorescence at 20 uM incubated for 4 hrs followed by propidium iodide staining based confocal laser scanning microscopy; format: ADME, cell-based; details: b16-f10, 4 h
# [7] = Photolysis of compound in PBS buffer at pH 7.4 assessed as compound decomposition by measuring final photoproduct formation at 0.1 mM irradiated with >= 365 nm for 20 mins by RP-HPLC analysis; format: physicochemical; details: pH 7.4, 20 min, 100 µM
# [8] = Photorelease ability in PBS buffer at pH 7.4 assessed as compound decomposition by measuring 1-(9-ethyl-9H-carbazol-3-y1)-2,2-dihydroxyethan-l-one photoproduct formation at 100 uM measured upto 5.5 mins of irradiation with >= 365 nm Hg lamp by RP-HPLC analysis followed by 1H-NMR analysis; format: physicochemical; details: pH 7.4, 5.5 min
# [9] = Photorelease activity in PBS buffer at pH 7.4 assessed as release of CO using 3',6'-Bis(allyloxy)-3H-spiro(isobenzofuran-1,9'-xanthen)-3-one fluorescent probe at 500 uM irradiated with >= 365 nm Hg lamp for 30 mins in presence of PdCl2 by absorption spectroscopy; format: physicochemical; details: pH 7.4, 0.5 h
# B16-F10 [10] = experiment: Cytotoxicity against mouse B16-F10 cells assessed as cell viability at 10 uM irradiated with >= 365 nm Hg lamp for 5 mins after 6 hrs post-treatment and further incubated for 72 hrs by MTT assay; format: functional; details: B16-F10, light or radiation study, time 78 hrs, read-out: Activity
# [11] = Photolysis of compound in PBS buffer at pH 7.4 assessed as compound decomposition by measuring final photoproduct formation at 0.1 mM irradiated with >= 365 nm for 60 mins by RP-HPLC analysis; format: physicochemical; details: pH 7.4, 1 h, 100 µM
# [12] = Photorelease ability in PBS buffer at pH 7.4 assessed as fast uncaging of CO at 100 uM irradiated with >= 365 nm Hg lamp for 60 mins by RP-HPLC analysis; format: physicochemical; details: pH 7.4, 1 h
# [13] = Photorelease ability in PBS buffer at pH 7.4 assessed as compound decomposition at 100 uM irradiated with >= 365 nm Hg lamp upto 30 mins by UV absorption spectroscopy; format: physicochemical; details: read-out: Drug degradation
Drug degradation [2],Drug degradation [7],Drug degradation [8],"degraded at 0.5 h, 100 µM [13]",Compound,Drug metabolism (B16-F10 [1]),"remaining at 72 h, 100 µM [3]","remaining at 72 h, 100 µM [4]",Activity (B16-F10 [5]),Drug uptake [6],Drug metabolism [9],viability at 10 µM (B16-F10 [10]),Drug degradation [11],Drug metabolism [12]
100%,93%,100%,–,CCn1c2ccccc2c2cc(-c3coc(=O)o3)ccc21,100%,87%,96%,70%,Active,5.9 ppm,–,–,–
–,–,–,–,O=C(O)CCCc1ccc(N(CCCl)CCCl)cc1 [CHLORAMBUCIL],–,–,–,–,–,–,80%,–,–
–,–,–,–,CCn1c2ccc(C(=O)COC(=O)CCCc3ccc(N(CCCl)CCCl)cc3)cc2c2cc(-c3coc(=O)o3)ccc21,100%,93%,96%,35%,Active,5.7 ppm,–,88%,Active
–,–,–,100%,CCn1c2ccc(C(=O)C(O)O)cc2c2cc(-c3coc(=O)o3)ccc21,–,–,–,–,–,–,–,–,–
